Experimental data as given in EP4737453A1, “NOVEL SELENOPHENE DERIVATIVES” (Aigen Sciences Inc., priority 2023, dated 2025).

Legend:
Assay type in all cases: cell-based
NCI-H358 = test: Cell Growth Inhibition Assay (3D CellTiter-Glo); conditions: Homo sapiens, NCI-H358, 288 h, read-out: Cell growth IC50
Method: Cell Growth Inhibition Assay
In this experimental example, the cell growth inhibitory effect of compounds according to the present invention and positive control compounds in tumor cell lines was examined.
The cell culture medium containing the compound was replaced by 100 µL every 3 days. Luminescence analysis was performed using the 3D CellTiter-Glo Luminescent Cell Viability Assay Kit (Promega, USA) (Promega catalog number G9681). […] The percent cell growth inhibition rate was calculated from the measured relative luminescence unit (RLU) as follows. Inhibition rate = 1−((RLU compound−RLU blank)/(RLU control−RLU blank)) X 100 [formula]

NCI-H358 cell line = test: Combination effect with targeted anticancer agent, cell viability (CellTiter-Glo, combination index), H358; conditions: H358 cells, 7 days, Example 1 compound 0.0001 to 0.1 µM, Fig. 1
Method: Test for evaluating the combination effect of targeted anticancer agent- Cell Viability
In this experimental example, we examined whether the compound according to the present invention has a synergistic effect on cancer cell death when used in combination with a target anticancer agent related to another RAS signal transduction pathway.
NCI-H358 cell line (ATCC catalog no. CRL-5807, USA) or EGFR exon 19 deletion cancer cell line PC-9 (Riken, Japan catalog no. RCB4455) were seeded in a well plate (500 cells per well for H358 and 50 cells per well for PC-9) in RPMI1640 (Gibco, USA catalog no. 22400-089) medium containing 10% fetal bovine serum (Excel Bio, USA catalog no. FSP500) and cultured for one day at 37°C under 5% CO2 conditions. […] Cell survival analysis was performed by luminescence analysis using the Promega CellTiter-Glo Luminescent Cell Viability Assay Kit (Promega, catalog number G7573), and luminescence was measured using a PerkinElmer 2014 EnVision plate reader. The inhibition rate was calculated from the measured relative luminescence value in the same manner as in Experimental Example 3, and the combination index (CI) between the compound of the present invention and the target anticancer agent was calculated using the following equation. […]

MIA-PaCa-2 = test: Reactive oxygen species (ROS) production assay; conditions: MIA-PaCa-2 cells, 10 µM, 24 hours; Figure 3
Method: Reactive oxygen species (ROS) production assay
In this experimental example, it was examined that the compound according to the present invention has the effect of increasing reactive oxygen in tumor cells.
MIA-PaCa-2 (Korea Cell Line Bank KCLB No. 21420), a cancer cell line harboring KRAS G12C mutation, was cultured in a cell culture medium containing RPMI1640 (Gibco, USA, catalog no. 11875-119), 10% fetal bovine serum (HyClone, USA, catalog no. SH30919.03), and 1 × diluted HyClone Antibiotic Antimycotic solution (HyClone, USA, catalog no. SV30079.01). 3 × 10^5 cells were seeded per well in a 6-well plate and cultured for 1 day at 37°C under 5% CO2 conditions. […] The cells were then collected in a microtube and analyzed for fluorescence using a BD LSRFortessa™ X-20 Cell Analyzer (BD Biosciences, USA) (excitation wavelength: 488 nm, emission wavelength: 535 nm). The fluorescence intensity due to the increase in reactive oxygen species was measured for 10,000 cells. Among the cells treated with 500 µM hydrogen peroxide, which was the positive control, the section in which the fluorescence intensity increased compared to the cells treated with the blank sample was found, and the average fluorescence intensity of the cells within this section was calculated. […]

`CNCc1ccccc1-c1c[se]c([C@@H](C)Nc2nc(C)nc3cc(OC)c(OC)cc23)c1` [Example 1, (R)-6,7-dimethoxyl-2-methyl-N-(1-(4-(2-((methylamino)methyl)phenyl)selenophen-2-yl)ethyl)quinazolin-4-amine] was tested, and the IC50 (NCI-H358) was 20.7 nM, the “synergistic effect inhibiting cell growth in combination with sotorasib” value (NCI-H358 cell line; sotorasib 0.001 to 1 µM) was “strong synergistic effect” and the “synergistic effect inhibiting cell growth in combination with trametinib” value (NCI-H358 cell line; trametinib 0.001 to 0.1 µM) was “strong synergistic effect”. The “ROS production compared to the blank sample” value (MIA-PaCa-2) was “significantly increased ROS production”.
